1 compound from publication PMC5152921, “Evolutionary and Functional Diversification of the Vitamin D Receptor-Lithocholic Acid Partnership” (PLoS ONE, 2016) can be followed below.

The target of the test is T1, Skate VDR (Leucoraja erinacea, UniProt A0A088GDQ7).
T1 sequence (A0A088GDQ7 1-434): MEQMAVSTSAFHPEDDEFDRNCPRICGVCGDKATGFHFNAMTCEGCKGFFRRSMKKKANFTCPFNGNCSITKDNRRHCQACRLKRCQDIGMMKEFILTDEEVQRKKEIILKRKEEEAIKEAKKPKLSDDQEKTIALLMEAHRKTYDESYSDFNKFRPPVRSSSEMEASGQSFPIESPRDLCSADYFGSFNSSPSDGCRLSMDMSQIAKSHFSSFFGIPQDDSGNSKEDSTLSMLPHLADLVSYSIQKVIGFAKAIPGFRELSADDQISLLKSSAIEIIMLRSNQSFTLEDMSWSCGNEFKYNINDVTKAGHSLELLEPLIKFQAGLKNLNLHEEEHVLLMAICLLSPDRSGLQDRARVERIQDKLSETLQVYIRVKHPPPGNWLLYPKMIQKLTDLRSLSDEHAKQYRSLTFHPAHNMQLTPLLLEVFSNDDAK
T1 sequence (P19793 1-462 partner): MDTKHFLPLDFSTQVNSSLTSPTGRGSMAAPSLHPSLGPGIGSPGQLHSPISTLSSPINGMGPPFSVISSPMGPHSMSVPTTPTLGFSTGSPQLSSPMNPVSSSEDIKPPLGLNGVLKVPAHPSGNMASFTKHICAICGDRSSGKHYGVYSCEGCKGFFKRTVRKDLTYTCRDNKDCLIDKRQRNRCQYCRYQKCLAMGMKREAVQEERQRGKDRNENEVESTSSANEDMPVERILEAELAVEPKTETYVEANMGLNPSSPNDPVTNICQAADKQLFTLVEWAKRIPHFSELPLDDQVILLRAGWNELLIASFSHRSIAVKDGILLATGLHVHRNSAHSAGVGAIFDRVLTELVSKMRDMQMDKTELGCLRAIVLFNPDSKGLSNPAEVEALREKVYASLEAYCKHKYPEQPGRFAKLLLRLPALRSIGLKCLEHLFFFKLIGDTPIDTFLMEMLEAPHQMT
Briefly: Transient transactivation assay (XREM-Luc, HepG2). Type of test: cell-based. The settings on record: 100 μM LCA. As for the experimental part:
HepG2 cells (American Type Culture Collection #HB-8065) were cultured in T75 flasks with vented caps (Corning Life Sciences, Corning, NY) using Minimum Essential Medium (MEM) with phenol red supplemented with 10% fetal bovine serum, 1 mM sodium pyruvate, and 1X MEM non-essential amino acids. Cells were maintained following standard protocols in a 5% CO2 incubator set at 37°C, and split when 80–90% confluent.
For the transient transactivation assays, HepG2 cells were seeded in 96-well tissue culture plates at a density of 2.5x10^4 cells per well in complete phenol red-free MEM, and allowed to recover overnight. Transfections were performed the following day using Lipofectamine 2000 (Life Technologies, Grand Island, NY) as described previously. For functional comparisons, 89.7 ng/well of full-length pSG5-VDR was co-transfected with 19.2 ng/well human XREM-Luc reporter and 4.5 ng/well of pRL-CMV as an internal luciferase control. Coregulator studies included the addition of 18.3 ng/well of human coregulators (pCDNA-RXRWT, pCDNA-RXRAF2, pSG5-SRC1, pSG5-GRIP1 or pSG5-ACTR) where indicated. […] Controls include 120 nM 1,25D3 as a positive control, and ethanol as a vehicle control. Twenty-four hours post-exposure cells were tested for luciferase activity using the Dual-Glo Luciferase Assay System (Promega Corporation, Madison, WI) according to the manufacturer’s protocols. Luciferase data were first normalized to the pRL-CMV internal luciferase control. […] To calculate the impact of coregulators on VDR transactivation, VDR response in the presence of coregulators was normalized to VDR alone. All experiments were repeated 3 times and conducted as groups of 4 replicate wells. VDR response in the absence of coregulators was analyzed using a 1-way ANOVA followed by Dunnett’s multiple comparisons test. To examine the effects of different coregulators on VDR activation, data were analyzed using a 2-way ANOVA followed by Bonferroni’s multiple comparisons test in GraphPad Prism (GraphPad Inc, San Diego, CA).

For the compound `C[C@H](CCC(=O)O)[C@H]1CC[C@H]2[C@@H]3CC[C@@H]4C[C@H](O)CC[C@]4(C)[C@H]3CC[C@]12C` [LCA, 5β-cholanic acid-3α-ol], the “Effect of exogenous human RXRWT on VDR transactivation” value (co-transfected human RXRWT, vs VDR alone) is “significantly enhanced transactivation”. Moreover, the “Effect of RXRWT+SRC1 or RXRWT+GRIP1 on VDR transactivation” value (not significantly different from RXRWT individually) is “Enhanced VDR transactivation was also observed”.
